Results: US20220361497A1, “METHOD FOR CONTROLLING GROWTH OF MICROORGANISMS AND/OR BIOFILMS IN AN INDUSTRIAL PROCESS” (Kemira Oyj, priority 2017, published 2022)

Columns and labels:
Assay type in all cases: cell-based
[1] = tested on: Meiothermus silvanus biofilms; assay: Prevention of biofilm formation, 96-microwell plate with peg lids, Crystal Violet staining; conditions: for Biofilm quantity after 48 h contact time, Abs. at 595 nm / Biofilm reduction after 48 h contact time / Biofilm quantity after 48 h contact time in SPW, Abs. at 595 nm / Biofilm reduction after 48 h contact time in SPW: SPW; for Biofilm quantity after 48 h contact time, Abs. at 595 nm / Biofilm reduction after 48 h contact time: 45° C., 150 rpm
From the text: (§1) Pure cultures of Meiothermus silvanus, a microbe species commonly found in paper machine biofilms (Ekman J, Journal of Industrial Microbiology & Biotechnology 34:203-211) and Pseudoxanthomonas taiwanensis, another species commonly found in paper machine environments (Desjardins, E & Beaulieu, C, Journal of Industrial Microbiology & Biotechnology 30:141-145) were used to study the efficacy of various chemicals to prevent biofilm formation.
(§2) Biofilm tests were done in either synthetic commercial R2-broth (Lab M Ltd, UK) or fibre-containing synthetic paper machine water, SPW (prepared according to Peltola et al., J. Ind. Microbiol. Biotechnol. 2011, 38: 1719-1727) using 96-microwell plate wells with peg lids (Thermo Fischer Scientific Inc., USA). Plates were incubated at 45° C. with a rotary shaking (150 rpm) providing high flow in each well.
(§3) For experiments of preventing biofilm formation wells of 96-microwell plates with peg-lids were filled with R2-broth or SPW, inoculated with the pure bacterial cultures and treated with different amounts of chemical compounds to be tested. Peg-lid was put on. After 24 hours the wells were emptied and a fresh solution of pure culture containing SPW or R2 broth with different amounts of test chemicals were added to the wells and the original peg-lid was put back in place. After an additional 24 hours, i.e., 48 hours after starting the test, the wells were emptied, rinsed and the peg lid and wells were left to dry.
(§4) The amount of biofilm formed on the microwells, and peg surfaces was quantified with a staining solution by adding 200 μl of 1% Crystal Violet (Merck Millipore KGaA, Germany) in methanol to each well and placing the peg-lid back on. After 3 minutes the wells were emptied, and the wells and pegs were rinsed 3 times with tap water. The attached Crystal Violet was dissolved into ethanol and the absorbance at 595 nm was measured. The values shown in the following tables are average absorbance from 8 replicate wells and pegs.
(§5) All absorbance values in Examples 1-6 are given actual measured values. In calculation for biofilm reduction percentages it was taken in account that the SPW alone for 2 days without any bacterial inoculum gave a background value of 0.14.

[2] = tested on: Pseudoxanthomonas taiwanensis biofilms; assay: as above; conditions: for Biofilm quantity after 48 h contact time, Abs. at 595 nm / Biofilm reduction after 48 h contact time: SPW, 45° C., 150 rpm
From the text: as §1, §2, §3, §4, §5

[3] = tested on: Meiothermus silvanus biofilms; assay: Removal of existing (preformed) biofilm, 96-microwell plate with peg lids, Crystal Violet staining; conditions: SPW, 45° C., 150 rpm; for Biofilm quantity after 24 h pre-growth and 24 h contact time, Abs. at 595 nm / Biofilm reduction after 24 h pre-growth and 24 h contact time: separated isomer
From the text: as §1, §2
(§6) For experiments of removing already existing (preformed) biofilm wells of 96-microwell plates with peg-lids were filled with SPW, inoculated with the pure bacterial cultures. Biofilm was grown for 24 hours without addition of any chemical compound to be tested. In some experiments after 24 hours the procedure was repeated by emptying the wells and by addition of a fresh solution of SPW inoculated with pure bacterial culture, again without any test chemical compound. The original peg-lid was put back in place and biofilm was allowed to grow for additional 24 h, i.e., in total 48 h.
(§7) After 24 or 48 hours after starting the test, the wells were emptied and a fresh solution of SPW, inoculated with the pure bacterial cultures and with different amounts of chemical compounds to be tested were added and the original peg-lid was placed back in place. After an additional 2 or 24 hours the wells were emptied, rinsed and the peg lid and wells were left to dry.
as §4, §5

[4] = tested on: Pseudoxanthomonas taiwanensis biofilms; assay: as above; conditions: SPW; for Biofilm quantity after 48 h pre-growth and 24 h contact time, Abs. at 595 nm / Biofilm reduction after 48 h pre-growth and 24 h contact time: 45° C., 150 rpm
From the text: as §1, §2, §6, §7, §4, §5

[5] = separated isomer, dosage 0.1 mg/l active
[6] = separated isomer, dosage 0.2 mg/l active
[7] = Compound B dosage 0.1 mg/l active
[8] = Compound B dosage 0.25 mg/l active
[9] = Compound B dosage 1 mg/l active
[10] = Compound B dosage 3 mg/l active
[11] = Compound B dosage 10 mg/l active

## Cc1ccc(S(=O)(=O)C=CC#N)cc1 [E-isomer of Compound A, 3-[(4-methylphenyl)sulfonyl]-2-propenenitrile]
[1]; [5]
  Biofilm quantity after 48 h contact time, Abs. at 595 nm: 0.40
  Biofilm reduction after 48 h contact time: 88.9%
[1]; [6]
  Biofilm quantity after 48 h contact time, Abs. at 595 nm: 0.16
  Biofilm reduction after 48 h contact time: 99.3%
[2]; [5]
  Biofilm quantity after 48 h contact time, Abs. at 595 nm: 0.36
  Biofilm reduction after 48 h contact time: 90.6%
[2]; [6]
  Biofilm quantity after 48 h contact time, Abs. at 595 nm: 0.16
  Biofilm reduction after 48 h contact time: 99.1%
[3]; dosage 0.2 mg/l active
  Biofilm quantity after 24 h pre-growth and 24 h contact time, Abs. at 595 nm: 0.90
  Biofilm reduction after 24 h pre-growth and 24 h contact time: 67.6%
[3]; dosage 1 mg/l active
  Biofilm quantity after 24 h pre-growth and 24 h contact time, Abs. at 595 nm: 0.26
  Biofilm reduction after 24 h pre-growth and 24 h contact time: 95.0%

## Gramicidin [reference compound]
[1]; Gramicidin dosage 0.2 mg/l
  Biofilm quantity after 48 h contact time in SPW, Abs. at 595 nm: 1.33
  Biofilm reduction after 48 h contact time in SPW: 2.5%
[1]; Gramicidin dosage 1 mg/l
  Biofilm quantity after 48 h contact time in SPW, Abs. at 595 nm: 1.41
  Biofilm reduction after 48 h contact time in SPW: −4.1%
[1]; Gramicidin dosage 3 mg/l
  Biofilm quantity after 48 h contact time in SPW, Abs. at 595 nm: 0.45
  Biofilm reduction after 48 h contact time in SPW: 74.6%
[1]; Gramicidin dosage 10 mg/l
  Biofilm quantity after 48 h contact time in SPW, Abs. at 595 nm: 0.19
  Biofilm reduction after 48 h contact time in SPW: 95.9%
[2]; Gramicidin dosage 3 mg/l
  Biofilm quantity after 48 h contact time in SPW, Abs at 595 nm: 2.25
  Biofilm reduction after 48 h contact time in SPW: 5.4%
[2]; Gramicidin dosage 10 mg/l
  Biofilm quantity after 48 h contact time in SPW, Abs at 595 nm: 2.41
  Biofilm reduction after 48 h contact time in SPW: −1.8%
[2]; Gramicidin dosage 25 mg/l
  Biofilm quantity after 48 h contact time in SPW, Abs at 595 nm: 2.42
  Biofilm reduction after 48 h contact time in SPW: −2.2%

## N#CC(Br)(Br)C(N)=O [DBNPA, 2,2-dibromo-3-nitrilopropionamide, reference compound]
[1]; active compound, synthetic paper machine water, high temperature, fibres present, high flow
  dosage required to reach same (over 90%) biofilm reduction efficacy: 1 mg/L

## Cc1ccc(S(=O)(=O)C=CC#N)cc1 [Compound A, 3-[(4-methylphenyl)sulfonyl]-2-propenenitrile]
[1]; dosage 0.01 mg/l active
  Biofilm quantity after 48 h contact time, Abs. at 595 nm: 0.80
  Biofilm reduction after 48 h contact time: 21.4%
[1]; dosage 0.03 mg/l active
  Biofilm quantity after 48 h contact time, Abs. at 595 nm: 0.75
  Biofilm reduction after 48 h contact time: 27.4%
[1]; dosage 0.08 mg/l active
  Biofilm quantity after 48 h contact time, Abs. at 595 nm: 0.58
  Biofilm reduction after 48 h contact time: 47.6%
[1]; dosage 0.13 mg/l active
  Biofilm quantity after 48 h contact time, Abs. at 595 nm: 0.22
  Biofilm reduction after 48 h contact time: 90.5%
[1]; dosage 0.20 mg/l active
  Biofilm quantity after 48 h contact time, Abs. at 595 nm: 0.15
  Biofilm reduction after 48 h contact time: 98.8%
[1]; dosage of 0.13 mg/l active, synthetic paper machine water, high temperature, fibres present, high flow
  biofilm reduction effect: over 90%
[2]; dosage 0.01 mg/l active
  Biofilm quantity after 48 h contact time, Abs. at 595 nm: 1.42
  Biofilm reduction after 48 h contact time: 4.5%
[2]; dosage 0.03 mg/l active
  Biofilm quantity after 48 h contact time, Abs. at 595 nm: 1.26
  Biofilm reduction after 48 h contact time: 16.4%
[2]; dosage 0.08 mg/l active
  Biofilm quantity after 48 h contact time, Abs. at 595 nm: 0.88
  Biofilm reduction after 48 h contact time: 44.8%
[2]; dosage 0.13 mg/l active
  Biofilm quantity after 48 h contact time, Abs. at 595 nm: 0.55
  Biofilm reduction after 48 h contact time: 69.4%
[2]; dosage 0.20 mg/l active
  Biofilm quantity after 48 h contact time, Abs. at 595 nm: 0.39
  Biofilm reduction after 48 h contact time: 81.3%
[3]; dosage 0.5 mg/l active
  Biofilm quantity after 48 h pre-growth and 2 h contact time, Abs. at 595 nm: 1.20
  Biofilm reduction after 48 h pre-growth and 2 h contact time: 8.0%
[3]; dosage 1 mg/l active
  Biofilm quantity after 48 h pre-growth and 2 h contact time, Abs. at 595 nm: 1.11
  Biofilm reduction after 48 h pre-growth and 2 h contact time: 16.3%
[3]; dosage 2 mg/l active
  Biofilm quantity after 48 h pre-growth and 2 h contact time, Abs. at 595 nm: 0.99
  Biofilm reduction after 48 h pre-growth and 2 h contact time: 26.6%
[4]; dosage 0.2 mg/l active
  Biofilm quantity after 48 h pre-growth and 24 h contact time, Abs. at 595 nm: 1.73
  Biofilm reduction after 48 h pre-growth and 24 h contact time: 32.2%
[4]; dosage 0.5 mg/l active
  Biofilm quantity after 48 h pre-growth and 24 h contact time, Abs. at 595 nm: 0.13
  Biofilm reduction after 48 h pre-growth and 24 h contact time: 100.2%
[4]; single dosage of 0.5 mg/l active compound, 48-hour pre-growth, 24 hours after addition
  removal of already formed biofilm (in words): removed all of the biofilm

## Cc1ccc(S(=O)(=O)C=CC#N)cc1 [Z-isomer of Compound A, 3-[(4-methylphenyl)sulfonyl]-2-propenenitrile]
[1]; [5]
  Biofilm quantity after 48 h contact time, Abs. at 595 nm: 0.16
  Biofilm reduction after 48 h contact time: 99.1%
[1]; [6]
  Biofilm quantity after 48 h contact time, Abs. at 595 nm: 0.15
  Biofilm reduction after 48 h contact time: 99.4%
[2]; [5]
  Biofilm quantity after 48 h contact time, Abs. at 595 nm: 0.16
  Biofilm reduction after 48 h contact time: 99.3%
[2]; [6]
  Biofilm quantity after 48 h contact time, Abs. at 595 nm: 0.16
  Biofilm reduction after 48 h contact time: 99.3%
[3]; dosage 0.2 mg/l active
  Biofilm quantity after 24 h pre-growth and 24 h contact time, Abs. at 595 nm: 0.81
  Biofilm reduction after 24 h pre-growth and 24 h contact time: 71.3%
[3]; dosage 1 mg/l active
  Biofilm quantity after 24 h pre-growth and 24 h contact time, Abs. at 595 nm: 0.27
  Biofilm reduction after 24 h pre-growth and 24 h contact time: 94.6%

## Nc1ccc(S(=O)(=O)Nc2nccs2)cc1 [Compound B, 4-amino-N-2-thiazolyl-benzenesulphonamide]
[1]; [7]
  Biofilm quantity after 48 h contact time, Abs. at 595 nm: 0.62
  Biofilm reduction after 48 h contact time: 34.4%
[1]; [8]
  Biofilm quantity after 48 h contact time, Abs. at 595 nm: 0.18
  Biofilm reduction after 48 h contact time: 94.0%
[1]; [9]
  Biofilm quantity after 48 h contact time, Abs. at 595 nm: 0.15
  Biofilm reduction after 48 h contact time: 99.1%
[1]; [10]
  Biofilm quantity after 48 h contact time, Abs. at 595 nm: 0.16
  Biofilm reduction after 48 h contact time: 97.9%
[1]; [11]
  Biofilm quantity after 48 h contact time, Abs. at 595 nm: 0.18
  Biofilm reduction after 48 h contact time: 94.0%
[2]; [8]
  Biofilm quantity after 48 h contact time, Abs. at 595 nm: 2.35
  Biofilm reduction after 48 h contact time: 2.6%
[2]; [9]
  Biofilm quantity after 48 h contact time, Abs. at 595 nm: 2.04
  Biofilm reduction after 48 h contact time: 16.3%
[2]; [10]
  Biofilm quantity after 48 h contact time, Abs. at 595 nm: 0.84
  Biofilm reduction after 48 h contact time: 69.3%
[2]; [11]
  Biofilm quantity after 48 h contact time, Abs. at 595 nm: 0.54
  Biofilm reduction after 48 h contact time: 82.4%
